Literature values, collected in US20210046029A1, “LEVODOPA AND CARBIDOPA INTESTINAL GEL AND METHODS OF USE” (AbbVie Inc., priority 2015, published 2021).

Target: T1, peripheral dopa decarboxylase (Homo sapiens, UniProt P20711)
T1 construct: host or cells: endogenous enzyme of peripheral tissues in vivo
T1 sequence (P20711 1-480): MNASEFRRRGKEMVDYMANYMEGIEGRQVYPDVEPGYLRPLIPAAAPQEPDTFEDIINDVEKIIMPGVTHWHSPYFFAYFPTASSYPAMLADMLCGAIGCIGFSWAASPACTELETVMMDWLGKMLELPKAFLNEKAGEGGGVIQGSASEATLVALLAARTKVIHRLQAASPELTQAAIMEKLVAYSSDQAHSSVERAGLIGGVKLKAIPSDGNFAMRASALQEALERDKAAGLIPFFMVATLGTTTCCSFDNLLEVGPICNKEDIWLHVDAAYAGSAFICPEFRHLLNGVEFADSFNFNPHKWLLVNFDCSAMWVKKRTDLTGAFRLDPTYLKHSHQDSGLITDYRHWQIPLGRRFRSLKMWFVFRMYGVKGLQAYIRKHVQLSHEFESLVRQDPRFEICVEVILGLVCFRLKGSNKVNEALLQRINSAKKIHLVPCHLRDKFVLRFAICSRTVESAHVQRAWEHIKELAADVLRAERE
Conditions: in vivo

- Carbidopa dose that saturates peripheral dopa decarboxylase: 70-100 mg a day
Compound: C[C@@](Cc1ccc(O)c(O)c1)(NN)C(=O)O [carbidopa, (2S)-3-(3,4-dihydroxy-phenyl)-2-hydrazino-2-methylpropanoic acid]
